In US20230212163A1, “2-(HET)ARYL-SUBSTITUTED CONDENSED HETEROCYCLIC DERIVATIVES AS PEST CONTROL AGENTS” (Bayer Aktiengesellschaft, priority 2020, published 2023):
Read-outs that look alike come from different tables or passages of the source.

Tests used:
Spodoptera frugiperda [1] = assay: Spodoptera frugiperda spray test (SPODFR, cotton leaves), comparative; assay type: in vivo; conditions: 168 h, 7 dat, read-out: % efficacy
Experimental: (§1) [table] To produce a suitable active compound formulation, 1 part by weight of active compound is dissolved using the stated parts by weight of solvent and made up with water containing an emulsifier concentration of 1000 ppm until the desired concentration is attained. To produce further test concentrations, the formulation is diluted with emulsifier-containing water. If the addition of ammonium salts or/and penetrants is required, these are each added in a concentration of 1000 ppm to the formulation solution. Cotton leaves (Gossypium hirsutum) are sprayed with an active compound formulation of the desired concentration and populated with caterpillars of the armyworm (Spodoptera frugiperda). After the desired time, the kill in % is determined. 100% means that all caterpillars have been killed; 0% means that none of the caterpillars have been killed.

Heliothis armigera = Heliothis armigera spray test (HELIAR), comparative; assay type: in vivo; conditions: Helicoverpa armigera, 168 h, 7 dat, read-out: % efficacy
Experimental: as §1, with “Cotton plants” for “Cotton leaves”, “concentration and, after drying,” for “concentration and”, “the cotton bollworm (Heliothis armigera).” for “the armyworm (Spodoptera frugiperda).”

Plutella xylostella = Plutella xylostella spray test (PLUTMA), comparative; assay type: in vivo; conditions: 168 h, 7 dat, read-out: % efficacy
Experimental: as §1, with “solution. Cabbage” for “solution. Cotton”, “leaves (Brassica oleracea)” for “leaves (Gossypium hirsutum)”, “and infected” for “and populated”, “with larvae” for “with caterpillars”, “the diamondback moth (Plutella xylostella).” for “the armyworm (Spodoptera frugiperda).”

Nezara viridula = Nezara viridula spray test; assay type: in vivo; conditions: application rate 500 g/ha, after 4 days; for pest or weed control at 500 g/ha: Nezara viridula, 96 h
Experimental: [table] To produce a suitable active compound formulation, 1 part by weight of active compound is dissolved using the stated parts by weight of solvent and made up with water containing an emulsifier concentration of 1000 ppm until the desired concentration is attained. To produce further test concentrations, the formulation is diluted with emulsifier-containing water. Barley plants (Hordeum vulgare) are sprayed with an active compound formulation of the desired concentration and are infected with larvae of the Southern green shield bug (Nezara viridula). After 4 days, the efficacy in % is determined. 100% means that all of the shield bugs have been killed; 0% means that none of the shield bugs have been killed.

Diabrotica balteata = Diabrotica balteata spray test; assay type: in vivo; conditions: after 7 days; for pest or weed control at 20 g/ha / pest or weed control at 100 g/ha / pest or weed control at 500 g/ha / pest or weed control at 31.25 g/ha / pest or weed control at 125 g/ha: Diabrotica balteata, 168 h; for pest or weed control at 20 g/ha: application rate 20 g/ha; for pest or weed control at 500 g/ha: application rate 500 g/ha (=160 μg/cavity); for pest or weed control at 500 g/ha / pest or weed control at 31.25 g/ha / pest or weed control at 125 g/ha: read-out: efficacy; for pest or weed control at 31.25 g/ha: application rate 31.25 g/ha (=10 μg/cavity); for pest or weed control at 125 g/ha: application rate 125 g/ha (=40 μg/cavity)
Experimental: [table] To produce a suitable active compound formulation, 1 part by weight of active compound is dissolved using the stated parts by weight of solvent and made up with water containing an emulsifier concentration of 1000 ppm until the desired concentration is attained. To produce further test concentrations, the formulation is diluted with emulsifier-containing water. Pre-swollen wheat grains (Triticum aestivum) are incubated in a multiwell plate filled with agar and a little water for one day (5 seed grains per cavity). The germinated wheat grains are sprayed with an active compound formulation of the desired concentration. Subsequently, each cavity is infected with 10-20 beetle larvae of Diabrotica balteata. After 7 days, the efficacy in % is determined. 100% means that all wheat plants have grown as in the untreated, uninfected control; 0% means that no wheat plant has grown.

Spodoptera frugiperda [2] = assay: Spodoptera frugiperda spray test (maize leaf discs); assay type: in vivo; conditions: application rate 100 g/ha, after 7 days; for pest or weed control at 100 g/ha: Spodoptera frugiperda, foliar, 168 h
Experimental: (§2) [table] To produce a suitable active compound formulation, 1 part by weight of active compound is dissolved using the stated parts by weight of solvent and made up with water containing an emulsifier concentration of 1000 ppm until the desired concentration is attained. To produce further test concentrations, the formulation is diluted with emulsifier-containing water. Leaf discs of maize (Zea mays) are sprayed with an active compound formulation of the desired concentration and, after drying, populated with caterpillars of the fall armyworm (Spodoptera frugiperda). After 7 days, the efficacy in % is determined. 100% means that all the caterpillars have been killed; 0% means that no caterpillar has been killed.

Phaedon cochleariae = Phaedon cochleariae spray test; assay type: in vivo; conditions: application rate 100 g/ha, after 7 days
Experimental: as §2, with “water. Discs” for “water. Leaf discs”, “of Chinese cabbage leaves (Brassica pekinensis)” for “of maize (Zea mays)”, “with larvae” for “with caterpillars”, “the mustard beetle (Phaedon cochleariae).” for “the fall armyworm (Spodoptera frugiperda).”, “the beetle larvae” for “the caterpillars”, “no beetle larvae have” for “no caterpillar has”

Myzus persicae = Myzus persicae oral test; assay type: in vivo; conditions: 120 h, application rate 4 ppm, after 5 days, read-out: efficacy
Experimental: [table] To produce a suitable active compound formulation, 1 part by weight of active compound is dissolved using the specified parts by weight of solvent and made up with water until the desired concentration is attained. 50 μl of the active compound formulation are transferred into microtitre plates and made up to a final volume of 200 μl with 150 μl of IPL41 insect medium (33%+15% sugar). Subsequently, the plates are sealed with parafilm, which a mixed population of green peach aphids (Myzus persicae) within a second microtitre plate is able to puncture and imbibe the solution through. After 5 days, the efficacy in % is determined. 100% means that all the aphids have been killed; 0% means that no aphids have been killed.

[3] = logP by HPLC on reversed-phase column (C18); assay type: physicochemical; conditions: LC-UV
Experimental: The logP values were determined according to EEC Directive 79/831 Annex V.A8 by HPLC (high-performance liquid chromatography) on a reversed-phase column (C18) using the following methods: ^[a]The logP value is determined by LC-UV measurement in the acidic range using 0.9 ml/l formic acid in water and 1.0 ml/l formic acid in acetonitrile as mobile phases (linear gradient from 10% acetonitrile to 95% acetonitrile). ^[b]The logP value is determined by LC-UV measurement in the neutral range using 0.001 molar ammonium acetate solution in water and acetonitrile as mobile phases (linear gradient from 10% acetonitrile to 95% acetonitrile). Calibration was carried out using straight-chain alkan-2-ones (having 3 to 16 carbon atoms) with known logP values. The values between successive alkanones are determined by linear regression.

[4] = neutral range, ammonium acetate/acetonitrile, read-out: logP (neutral)

Compound: CCc1nc(C(F)(F)F)cc2nc(-c3nc(-n4ncn(-c5ccc(O)cc5)c4=O)ccc3S(=O)(=O)CC)n(C)c12 [I-016 Known from WO2018/141954, reference compound]
- Emax at 0.8 ppm (Spodoptera frugiperda [1]): 65%
- Emax at 0.8 ppm (Heliothis armigera): 10%
- Emax at 4 ppm (Heliothis armigera): 55%
- Emax at 0.8 ppm (Plutella xylostella): 70%

Compound: CCS(=O)(=O)c1ccc(-n2ncn(-c3ccc(F)cc3)c2=O)nc1-c1nc2cc(S(=O)(=O)C(F)(F)C(F)(F)F)ccc2o1 [Example I-52]
- pest or weed control at 500 g/ha (Nezara viridula): 100%
- pest or weed control at 20 g/ha (Diabrotica balteata): 100%
- pest or weed control at 100 g/ha (Diabrotica balteata; application rate 100 g/ha): 100%
- pest or weed control at 100 g/ha (Spodoptera frugiperda [2]): 100%

Compound: CCS(=O)(=O)c1ccc(-n2ncn(-c3ccc(Cl)cc3)c2=O)nc1-c1nc2cc(C(F)(F)C(F)(F)F)ccc2o1 [Example I-45]
- pest or weed control at 500 g/ha (Nezara viridula): 100%
- pest or weed control at 20 g/ha (Diabrotica balteata): 80%
- pest or weed control at 100 g/ha (Diabrotica balteata; application rate 100 g/ha): 100%
- pest or weed control at 100 g/ha (Spodoptera frugiperda [2]): 100%

Compound: CCS(=O)(=O)c1ccc(-n2ncn(-c3ccc(Cl)cc3)c2=O)nc1-c1nc2cc(S(=O)(=O)C(F)(F)F)ccc2o1 [Example I-02]
- Emax at 0.8 ppm (Spodoptera frugiperda [1]): 100%
- Emax at 0.8 ppm (Heliothis armigera): 100%
- Emax at 4 ppm (Heliothis armigera): 100%
- activity (Phaedon cochleariae): 100%
- Emax at 0.8 ppm (Plutella xylostella): 100%
- pest or weed control at 4 ppm (Myzus persicae): 90%
- pest or weed control at 100 g/ha (Spodoptera frugiperda [2]): 100%

Compound: CCS(=O)(=O)c1ccc(-n2ncn(-c3cccc(F)c3)c2=O)nc1-c1nc2cc(C(F)(F)C(F)(F)F)ccc2o1 [Example I-47]
- pest or weed control at 500 g/ha (Nezara viridula): 100%
- pest or weed control at 20 g/ha (Diabrotica balteata): 80%
- pest or weed control at 100 g/ha (Diabrotica balteata; application rate 100 g/ha): 80%
- pest or weed control at 100 g/ha (Spodoptera frugiperda [2]): 100%

Compound: O=S(=O)(c1ccc2oc(-c3nc(F)ccc3F)nc2c1)C(F)(F)F [2-(3,6-Difluoro-2-pyridyl)-5-(trifluoromethylsulfonyl)-1,3-benzoxazole]
- chromatographic logP [3, 4]: 3.06

Compound: CCS(=O)(=O)c1ccc(-n2ncn(-c3cccc(F)c3)c2=O)nc1-c1nc2cc(S(=O)(=O)C(F)(F)F)ccc2o1 [Example I-14, 2-[5-Ethylsulfonyl-6-[5-(trifluoromethylsulfonyl)-1,3-benzoxazol-2-yl]-2-pyridyl]-4-(3-fluorophenyl)-1,2,4-triazol-3-one]
- chromatographic logP [3, 4]: 3.43
- pest or weed control at 100 g/ha (Diabrotica balteata; application rate 100 g/ha): 100%
- pest or weed control at 500 g/ha (Diabrotica balteata): 100%
- pest or weed control at 4 ppm (Myzus persicae): 90%
- pest or weed control at 100 g/ha (Spodoptera frugiperda [2]): 100%

Compound: CCS(=O)(=O)c1ccc(F)nc1-c1nc2cc(S(=O)(=O)C(F)(F)F)ccc2o1 [2-(3-Ethylsulfonyl-6-fluoro-2-pyridyl)-5-(trifluoromethylsulfonyl)-1,3-benzoxazole]
- chromatographic logP [3, 4]: 3.11

Compound: CCS(=O)(=O)c1ccc(-n2cnn(-c3ccccc3F)c2=O)nc1-c1nc2cc(C(F)(F)F)ccc2n1C [I-34 Known from WO2017/055185, reference compound]
- Emax at 0.8 ppm (Spodoptera frugiperda [1]): 0%
- Emax at 4 ppm (Heliothis armigera): 0%
- Emax at 4 ppm (Plutella xylostella; 4 ppm): 0%

Compound: CCS(=O)(=O)c1ccc(-n2ncn(-c3ccc(C#N)cc3)c2=O)nc1-c1nc2cc(S(=O)(=O)C(F)(F)F)ccc2o1 [Example I-06]
- pest or weed control at 31.25 g/ha (Diabrotica balteata): 100%
- pest or weed control at 125 g/ha (Diabrotica balteata): 100%
- pest or weed control at 500 g/ha (Diabrotica balteata): 100%
- pest or weed control at 4 ppm (Myzus persicae): 90%
- pest or weed control at 100 g/ha (Spodoptera frugiperda [2]): 100%

Compound: CCSc1ccc(F)nc1-c1nc2cc(S(=O)(=O)C(F)(F)F)ccc2o1 [2-(3-Ethylsulfanyl-6-fluoro-2-pyridyl)-5-(trifluoromethylsulfonyl)-1,3-benzoxazole]
- chromatographic logP ([3]; acidic range, formic acid in water/acetonitrile, read-out: logP (acidic)): 4.13

Compound: CCS(=O)(=O)c1ccc(N2N=CC(c3ccccc3)C2=O)nc1-c1nc2cc(S(=O)(=O)C(F)(F)F)ccc2o1 (stereo not shown) [Example I-01]
- activity (Phaedon cochleariae): 100%
- pest or weed control at 4 ppm (Myzus persicae): 100%
- pest or weed control at 100 g/ha (Spodoptera frugiperda [2]): 100%

Compound: CCS(=O)(=O)c1ccc(-n2ncn(-c3cccc(Cl)c3)c2=O)nc1-c1nc2cc(S(=O)(=O)C(F)(F)C(F)(F)F)ccc2o1 [Example I-42]
- activity (Nezara viridula): 90%
- activity (Diabrotica balteata; application rate 100 g/ha): 80%
- activity (Spodoptera frugiperda [2]): 100%

Compound: CCS(=O)(=O)c1ccc(-n2ncn(-c3cccc(I)c3)c2=O)nc1-c1nc2cc(S(=O)(=O)C(F)(F)F)ccc2o1 [Example I-16]
- pest or weed control at 100 g/ha (Diabrotica balteata; application rate 100 g/ha): 100%
- pest or weed control at 500 g/ha (Diabrotica balteata): 100%
- pest or weed control at 4 ppm (Myzus persicae): 90%
- pest or weed control at 100 g/ha (Spodoptera frugiperda [2]): 100%

Compound: CCS(=O)(=O)c1ccc(-n2ncn(-c3cccc(Cl)c3)c2=O)nc1-c1nc2cc(S(=O)(=O)C(F)(F)C(F)(F)F)ccc2o1 [Example I-41]
- pest or weed control at 500 g/ha (Nezara viridula): 100%
- pest or weed control at 20 g/ha (Diabrotica balteata): 100%
- pest or weed control at 100 g/ha (Diabrotica balteata; application rate 100 g/ha): 100%
- pest or weed control at 100 g/ha (Spodoptera frugiperda [2]): 100%

Compound: CCS(=O)(=O)c1ccc(-n2ncn(-c3ccc(Br)cc3)c2=O)nc1-c1nc2cc(S(=O)(=O)C(F)(F)F)ccc2o1 [Example I-05]
- pest or weed control at 31.25 g/ha (Diabrotica balteata): 100%
- pest or weed control at 125 g/ha (Diabrotica balteata): 100%
- pest or weed control at 500 g/ha (Diabrotica balteata): 100%
- pest or weed control at 4 ppm (Myzus persicae): 100%
- pest or weed control at 100 g/ha (Spodoptera frugiperda [2]): 100%
